We go through one molecule from patent publication US20110263657A1, “DIARYL UREAS FOR TREATING HEART FAILURE” (BAYER SCHERING PHARMA AKTIENGESELLSCHAFT, priority 2008, published 2011).

The test system of this assay is mouse models of pressure-induced heart failure. Description: Pressure-induced heart failure (TAC) in mice, organ weights and hemodynamic measurements. The format is in vivo. Conditions: banded (TAC) mice, 50 mg/kg/d po for 4 weeks. As to the method:
The effects of the compound and drug combinations according to the invention are tested in vivo in mouse models of pressure-induced heart failure.
Methods: Pressure-Induced Heart Failure (TAC)
Surgery: 8 weeks old mice were pre-anesthetized for 2-3 min in an isofluran flooded box and then intubated (tubus of own fabrication).
Mice were placed on the right side on a heating panel and the tubus was connected to a ventilation pump (Mini Vent Type 845, Hugo Sachs Electronic) which allowed the further ventilation of mice with isofluran (1.5%).
Mice were prepared for the surgery: eyes moistened with Bepanthen® salve (pharmaceutical ointment containing dexpanthenol), operation field shaved and disinfected, mice fixated with tape in a right lateral position.
The skin cut was placed ca 2 mm behind the left elbow and was 5 mm length and vertical. Pectoral muscles were separated until ribs. A wound-spreader was placed between the 2nd and the 3rd rib and thymus was visualized. After pushing by side the thymus V. cava, A pulmonalis and Aorta with both carotid branching were viewed. With help from a curved polished vessel catheter a ligation thread was placed around the aorta between both carotid branching. The aorta was constricted to a diameter of 0.6 mm with help from a splint.
By sham operated mice the same procedure was effectuated but the aorta was not constricted.
Before they woke up, mice were given 5 mg/5 ml/kg sc Rimadyl® (Pfizer, Carprofen), wound was cleaned with […] and coated with antibiotic salve (Neomycin® salve) and Bepanthen® salve was removed from the eyes.
After awaking from anesthesia the tubus was taken off and mice were placed in their cages heated with heating panels for at least half an hour.
Mice were divided into 3 groups (n=10-12): • sham operated with vehicle treatment • placebo with vehicle treatment • Sorafenib: 50 mg/kg/d in vehicle
Substances were dissolved in 10% Ethanol, 40% Solutol and 50% water.
Application volumes: 10 ml/kg/d po
Treatment: begin 1 day after surgery for 4 weeks
After 4 weeks of treatment hemodynamic measurement were performed and mice were sacrificed.
Hemodynamic measurements: Mice were pre-anesthetized for 2-3 min in an isofluran flooded box, followed by fixation in an anesthesia mask (continuous flow of 1.5% isofluran by spontaneous breathing of the mouse). Mice were placed on the back on a heating panel.
Throats were shaved and the skin incised on the median line. The right A. carotis was prepared and ligated cranial. A tip-catheter (Millar Micro-Tip-Transducer, 1.0 oder 1.4 French, Firma HSE) was introduced in the right A. carotis and pushed into the left ventricle and fixated. There, pressure of the left ventricle was registered for a few minutes (after reaching a steady state) over the catheter and analyzed by the Millar Chart 5 software. After the measurements blood samples were taken. Finally organs (heart, lung, liver, right kidney) were collected.

Turning to `CNC(=O)c1cc(Oc2ccc(NC(=O)Nc3ccc(Cl)c(C(F)(F)F)c3)cc2)ccn1` [Sorafenib, 4{4-[3-(4-chloro-3-trifluoromethylphenyl)-ureido]-phenoxy}-pyridine-2-carboxylic acid methyl amide], the “Relaxation constant tau, increment” value is on record as “inhibited”. Further, where the note is “compared to sham operated mice”, the “Heart weight/body weight ratio (hypertrophy)” value is listed as “completely inhibited” and the “Left ventricular weight/body weight ratio (hypertrophy)” value is “completely inhibited”. Besides, where the note is “p<0.05 compared to placebo”, the “Left ventricular end diastolic pressure, augmentation compared to sham operated mice” value turned out to be 7% and the “Left ventricular systolic pressure, augmentation compared to sham operated mice” value is 8%.
